# Source: US20210196676A1, “TREATMENT OF VIRAL INFECTIONS AND VIRALLY ASSOCIATED LESIONS WITH SEQUITERPENE LACTONES” (The Board of Regents of the University of Texas System, priority 2018, published 2021)
# Legend:
# in vitro [1] = conditions: human
# in vitro [2] = conditions: human; remark: listed apart in the source
# HPV = conditions: after three months of treatment, confirmed by smears and biopsies; cited from earlier work
# ankle wart = experiment: Topical treatment of a large ankle wart, case of a person; type: in vivo, human
# warts = conditions: human, in vivo; cited from earlier work
smiles,measurement,setting,value
"C=C1C(=O)O[C@@H]2C[C@@H](C)[C@@H]3C=CC(=O)[C@@]3(C)[C@@H](O)[C@H]12 (racemic) [H. tox, (±)-4-Hydroxy-4a,8-dimethyl-3,3a,4a,7a,8,9,9a-octahydroazuleno[6,5-b]furan-2,5-dione]",IC50,in vitro [1],~1000 nM
same,IC50,in vitro [2],~1000 nM
Cc1cccc(C)c1OCC(=O)N[C@@H](Cc1ccccc1)[C@@H](O)C[C@H](Cc1ccccc1)NC(=O)[C@H](C(C)C)N1CCCNC1=O [Lopinavir],women with high-grade disease having normal cervical conditions,HPV,82.6%
"CC(=O)Oc1ccccc1C(=O)O [crushed aspirin, aspirin]",wart after treatment was stopped,ankle wart; treatment stopped,regrew
same,wart size,ankle wart; under a commercial band aid for several weeks,slightly reduced in size
"O=[N+]([O-])[O-].[Ag+] [silver nitrate, Silver nitrate]",improvement in warts,warts,26%
